Measured values as given in article PMC6225212, “Synthesis and Pharmacological Evaluation of Novel Silodosin-Based Arylsulfonamide Derivatives as α1A/α1D-Adrenergic Receptor Antagonist with Potential Uroselective Profile” (Molecules : A Journal of Synthetic Chemistry and Natural …, 2018).
Where two headings read alike, the source gives them in different places.

Columns and labels:
α1-ARs [1] = experiment: Radioligand binding, displacement of [3H]-Prazosin from α1-ARs on rat cerebral cortex; conditions: for Sα2/α1 (ratio of affinity for α2- and α1-ARs): Ki α2 / Ki α1; for Ki: [3H]-Prazosin, rat cerebral cortex, ± SEM, two independent experiments
Description: (§1) The pharmacological profile of the new compounds was assessed in radioligand-binding assays as the ability to displace [^3H]-Prazosin or [^3H]-Clonidine from α1- and α2-ARs, respectively, on rat cerebral cortex. The inhibition constants (Ki) were calculated from the Cheng-Prusoff equation [24].
(§2) The affinity of the obtained compounds was evaluated by radioligand-binding assays (the ability to displace [^3H]-Prazosin and [^3H]-Clonidine from α1- and α2-ARs, respectively) on rat cerebral cortex. The brains are homogenized in 20 volumes of an ice-cold 50 mM Tris-HCl buffer (pH 7.6) and is centrifuged (MPW Med. Instruments, Warsaw, Poland) at 20,000 g for 20 min (0–4 °C). The cell pellet is resuspended in the Tris-HCl buffer and centrifuged again. Radioligand-binding assays are performed in plates (MultiScreen/Millipore, Burlington, MA, USA). The final incubation mixture (final volume 300 µL) consisted of 240 µL of the membrane suspension, 30 µL of [^3H]-Prazosin (0.2 nM) or [^3H]-Clonidine (2 nM) solution, and 30 µL of the buffer containing seven to eight concentrations (10^−11 to 10^−4 M) of the tested compounds. For measuring the unspecific binding, phentolamine, 10 µM (in the case of [^3H]-Prazosin) and clonidine, and 10 µM (in the case of [^3H]-Clonidine), were applied. The incubation was terminated by rapid filtration over glass fiber filters (Whatman GF/C, Sigma-Aldrich) using a vacuum manifold (Millipore). The filters were then washed twice with the assay buffer and placed in scintillation vials with a liquid-scintillation cocktail. Radioactivity was measured in a WALLAC 1409 DSA liquid-scintillation counter (BioSurplus, San Diego, CA, USA). All the assays were made in duplicate.

α2-ARs [2] = experiment: Radioligand binding, displacement of [3H]-Clonidine from α2-ARs on rat cerebral cortex; conditions: ± SEM, two independent experiments
Description: as §1, §2

α1A-ARs = target: T1, α1A-ARs (Homo sapiens, UniProt P35348); experiment: Intrinsic activity at α1A-ARs, β-lactamase reporter gene, FRET substrate; type: cell-based; parameters: key to α1A Profile: ANT—antagonist; AGO—agonist; conditions: for α1A Profile: functional profile; for IC50: antagonist mode, three independent experiments
T1 sequence (P35348 1-466): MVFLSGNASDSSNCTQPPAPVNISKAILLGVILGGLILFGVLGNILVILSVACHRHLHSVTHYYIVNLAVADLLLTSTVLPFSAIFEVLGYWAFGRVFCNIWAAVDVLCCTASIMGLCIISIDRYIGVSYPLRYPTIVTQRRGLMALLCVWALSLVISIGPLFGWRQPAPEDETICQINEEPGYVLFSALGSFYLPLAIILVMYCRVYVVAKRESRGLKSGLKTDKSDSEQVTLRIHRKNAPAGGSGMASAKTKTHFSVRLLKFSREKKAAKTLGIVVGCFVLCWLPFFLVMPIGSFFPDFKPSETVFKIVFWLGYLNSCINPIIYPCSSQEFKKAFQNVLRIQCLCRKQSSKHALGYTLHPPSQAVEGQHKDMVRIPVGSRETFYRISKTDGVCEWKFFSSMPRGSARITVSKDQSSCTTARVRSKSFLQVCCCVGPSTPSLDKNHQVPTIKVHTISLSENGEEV
Description: The intrinsic activity at α1A-ARs of the selected compounds was assessed by fluorescence detection (Invitrogen, Thermo Fisher Scientific, Carlsbad, CA, USA) of β-lactamase reporter genes using a FRET-enabled substrate. […] Intrinsic activity assay was performed according to the manufacturer of the assay kit (Invitrogen, Thermo Fisher Scientific corporation, Carlsbad, CA, USA). The cells were harvested and suspended in Assay Medium to a density of 312,500 cells/mL. Of the cell suspension, 32 µL per well was added to the Test Compound wells, the Unstimulated Control wells, and Stimulated Control wells and incubated per 16–24 h. […] Then, both the agonist and the antagonist plate were incubated in a humidified 37 °C/5% CO2 incubator for 5 h. After the incubation 8 µL of LiveBLAzer™-FRET B/G Substrate Mixture (CCF4-AM, Thermo Fisher Scientific corporation) was loaded cells in the absence of direct strong lighting, covered, and incubated at room temperature for 2 h.

α1B-ARs = target: T2, α1B-ARs (Homo sapiens, UniProt P35368); experiment: Intrinsic activity at α1B-ARs, aequorin calcium mobilization luminescence; type: cell-based; parameters: key to α1B Profile: ANT—antagonist; AGO—agonist; conditions: for α1B Profile: functional profile; for IC50: antagonist mode, three independent experiments
T2 sequence (P35368 1-520): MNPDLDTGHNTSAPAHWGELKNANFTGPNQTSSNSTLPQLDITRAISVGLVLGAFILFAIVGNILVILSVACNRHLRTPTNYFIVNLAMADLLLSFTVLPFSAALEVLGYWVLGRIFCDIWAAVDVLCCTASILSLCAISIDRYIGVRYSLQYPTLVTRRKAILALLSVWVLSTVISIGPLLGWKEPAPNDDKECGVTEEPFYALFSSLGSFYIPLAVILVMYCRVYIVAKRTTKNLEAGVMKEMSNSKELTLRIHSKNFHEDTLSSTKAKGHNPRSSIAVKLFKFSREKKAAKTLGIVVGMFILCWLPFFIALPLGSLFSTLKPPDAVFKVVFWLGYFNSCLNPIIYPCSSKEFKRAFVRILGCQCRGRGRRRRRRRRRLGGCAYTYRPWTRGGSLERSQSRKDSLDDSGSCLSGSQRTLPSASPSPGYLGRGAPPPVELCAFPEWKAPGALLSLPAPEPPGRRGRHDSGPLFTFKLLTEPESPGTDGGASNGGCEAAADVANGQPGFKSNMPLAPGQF
Description: (§3) The intrinsic activity at α1A-ARs of the selected compounds was assessed by fluorescence detection (Invitrogen, Thermo Fisher Scientific, Carlsbad, CA, USA) of β-lactamase reporter genes using a FRET-enabled substrate. The intrinsic activity at α1B-ARs and α1D-ARs was determined by luminescence detection (PerkinElmer, Zaventem, Belgium) of calcium mobilization using the recombinant-expressed jellyfish photoprotein (Aequorin).
(§4) Intrinsic activity assay to α1B- and α1D-ARs was performed according to the manufacturer of the ready-to-use cells with stable expression of the α1B-adrenoreceptors and α1D-adrenoreceptors, respectively (PerkinElmer, Zaventem, Belgium). For measurement, cells (frozen, ready to use) were thawed and resuspended in 10 mL of assay buffer containing 5 µM coelenterazine h. This cells suspension was put in a 10 mL Falcon tube, fixed onto a rotating heel, and incubated for overnight at rt in the dark (8 rpm; 45° angle). Cells were diluted with Assay Buffer to 5000 cells/20 µL. Agonistic ligands 2 × (50 µL/well), diluted in Assay Buffer, were prepared in ½ white polystyrene area plates, and the cell suspension was dispensed in 50 µL volume on the ligands using the injector. The light emitted was recorded for 20 s. Cells with antagonist were incubated for 15 min at room temperature. Thereafter, 50 µL of agonist (3 × EC80 final concentration) was injected into the mix of cells and antagonist and the light emitted was recorded for 20 s.

α1D-ARs = target: T3, α1D-ARs (Homo sapiens, UniProt P25100); experiment: Intrinsic activity at α1D-ARs, aequorin calcium mobilization luminescence; type: cell-based; parameters: key to α1D Profile: ANT—antagonist; AGO—agonist; conditions: for α1D Profile: functional profile; for IC50: antagonist mode
T3 sequence (P25100 1-572): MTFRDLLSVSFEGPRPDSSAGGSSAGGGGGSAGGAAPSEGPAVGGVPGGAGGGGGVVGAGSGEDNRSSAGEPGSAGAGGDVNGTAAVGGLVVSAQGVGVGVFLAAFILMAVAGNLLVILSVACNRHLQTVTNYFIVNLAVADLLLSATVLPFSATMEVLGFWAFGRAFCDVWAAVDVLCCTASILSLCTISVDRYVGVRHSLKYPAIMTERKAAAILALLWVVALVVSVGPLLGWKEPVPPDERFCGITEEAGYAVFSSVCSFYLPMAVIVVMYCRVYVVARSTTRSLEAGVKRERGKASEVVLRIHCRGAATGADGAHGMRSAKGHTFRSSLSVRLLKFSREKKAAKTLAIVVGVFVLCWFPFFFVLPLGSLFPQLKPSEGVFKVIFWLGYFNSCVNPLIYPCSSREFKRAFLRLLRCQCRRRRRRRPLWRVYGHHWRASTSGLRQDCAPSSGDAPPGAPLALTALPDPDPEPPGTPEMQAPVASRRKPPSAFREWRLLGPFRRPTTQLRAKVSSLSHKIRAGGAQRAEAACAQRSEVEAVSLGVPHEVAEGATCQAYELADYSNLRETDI
Description: as §3, §4

α1-ARs [3] = system: α1-ARs; parameters: method as in PMID 27658792; conditions: cited from earlier work
α2-ARs [4] = target: α2-ARs; parameters: method as in PMID 27658792; conditions: [3H]-Clonidine, rat cerebral cortex; ± SEM; cited from earlier work
[5] = antagonist, as worded in abstract and text, read-out: EC50(α1D)

Row | SMILES | Sα2/α1 (ratio of affinity for α2- and α1-ARs) (α1-ARs [1]) | Ki (α1-ARs [1]) | Ki (α2-ARs [2]) | α1A Profile (α1A-ARs) | α1B Profile (α1B-ARs) | α1D Profile (α1D-ARs) | other results
1 | O=S(=O)(N[C@@H]1CCN(CCOc2ccccc2OCC(F)(F)F)C1)c1ccc(F)cc1 [Compound 13, (R)-4-Fluoro-N-(1-{2-[(2,2,2-trifluoroethoxy)phenoxy]ethyl}pyrrolidin-3-yl)benzenesulfonamide] | 9 | 188 ± 3 nM | 1690 ± 85 nM | – | – | – | –
2 | CNC[C@H](O)c1cccc(O)c1 [phenylephrine, reference compound] | – | – | – | AGO ^b | AGO | AGO | EC50 (α1D-ARs; agonist mode, three independent experiments, read-out: α1D EC50): 12.1 nM
3 | COc1ccc(S(=O)(=O)N[C@@H]2CCN(CCOc3ccccc3OCC(F)(F)F)C2)cc1OC [Compound 17, (R)-3,4-Dimethoxy-N-(1-{2-[(2,2,2-trifluoroethoxy)phenoxy]ethyl}pyrrolidin-3-yl)benzenesulfonamide] | 4 | 105 ± 7 nM | 435 ± 21 nM | – | – | – | –
4 | COc1ccc(S(=O)(=O)N[C@H]2CCN(CCOc3ccccc3OCC(F)(F)F)C2)cc1OC [Compound 18, (S)-3,4-Dimethoxy-N-(1-{2-[(2,2,2-trifluoroethoxy)phenoxy]ethyl}pyrrolidin-3-yl)benzenesulfonamide] | 16 | 70 ± 1 nM | 1140 ± 42 nM | – | – | – | –
5 | CC(C)Oc1ccccc1OCCN1CC[C@H](NS(=O)(=O)c2cc(Cl)ccc2F)C1 [II] | – | – | – | – | – | – | Sα2/α1 (ratio of affinity for α2- and α1-ARs) (α1-ARs [3]; Ki α2 / Ki α1): >41; Ki (α1-ARs [3]; [3H]-Prazosin, rat cerebral cortex, ± SEM): 242 ± 16 nM; Ki (α2-ARs [4]): > 10000 nM

Continued, in another order:

Row | Sα2/α1 (ratio of affinity for α2- and α1-ARs) (α1-ARs [1]) | Ki (α1-ARs [1]) | Ki (α2-ARs [2]) | α1A Profile (α1A-ARs) | α1B Profile (α1B-ARs) | α1D Profile (α1D-ARs) | SMILES | other results
6 | >70 | 134 ± 16 nM | > 10000 nM | – | – | – | O=S(=O)(N[C@H]1CCN(CCOc2ccccc2OCC(F)(F)F)C1)c1ccc(F)cc1 [Compound 14, (S)-4-Fluoro-N-(1-{2-[(2,2,2-trifluoroethoxy)phenoxy]ethyl}pyrrolidin-3-yl)benzenesulfonamide] | –
7 | 12 | 95 ± 3 nM | 1090 ± 62 nM | – | – | – | COc1ccc(Cl)cc1S(=O)(=O)NCC1CCN(CCOc2ccccc2OCC(F)(F)F)CC1 [Compound 11, 5-Chloro-2-methoxy-N-[(1-{2-[(2,2,2-trifluoroethoxy)phenoxy]ethyl}piperidin-4-yl)methyl]benzenesulfonamide] | –
8 | 13 | 117 ± 10 nM | 1470 ± 80 nM | – | – | – | O=S(=O)(N[C@H]1CCN(CCOc2ccccc2OCC(F)(F)F)C1)c1cc(Cl)ccc1F [Compound 16, (S)-5-Chloro-2-fluoro-N-(1-{2-[(2,2,2-trifluoroethoxy)phenoxy]ethyl}pyrrolidin-3-yl)benzenesulfonamide] | –
9 | 7 | 171 ± 4 nM | 1190 ± 74 nM | – | – | – | O=S(=O)(N[C@@H]1CCN(CCOc2ccccc2OCC(F)(F)F)C1)c1cc(Cl)ccc1F [Compound 15, (R)-5-Chloro-2-fluoro-N-(1-{2-[(2,2,2-trifluoroethoxy)phenoxy]ethyl}pyrrolidin-3-yl)benzenesulfonamide] | –
10 | 46 | 20 ± 2 nM | 919 ± 25 nM | ANT | ANT | ANT | O=S(=O)(NCC1CCN(CCOc2ccccc2OCC(F)(F)F)CC1)c1ccc(F)cc1 [Compound 8, 4-Fluoro-N-[(1-{2-[(2,2,2-trifluoroethoxy)phenoxy]ethyl}piperidin-4-yl)methyl]benzenesulfonamide] | IC50 (α1A-ARs): 3.8 nM; IC50 (α1B-ARs): 8.3 nM; IC50 (α1D-ARs; three independent experiments): 1.1 nM; EC50 (α1D-ARs; [5]): 1.1 to 2.7 nM
11 | 27 | 19 ± 3 nM | 524 ± 31 nM | ANT | ANT | ANT | COc1ccc(S(=O)(=O)NCC2CCN(CCOc3ccccc3OCC(F)(F)F)CC2)cc1OC [Compound 12, 3,4-Dimethoxy-N-[(1-{2-[(2,2,2-trifluoroethoxy)phenoxy]ethyl}piperidin-4-yl)methyl]benzenesulfonamide] | IC50 (α1A-ARs): 15 nM; IC50 (α1B-ARs): 0.02 nM; IC50 (α1D-ARs; three independent experiments): 2.6 nM; EC50 (α1D-ARs; [5]): 1.1 to 2.7 nM
12 | – | – | – | ANT | ANT | ANT | COc1cc2nc(N3CCN(C(=O)C4CCCO4)CC3)nc(N)c2cc1OC (stereo not shown) [terazosin, reference compound] | IC50 (α1D-ARs; three independent experiments): 0.2 nM
